In PMC9410265, “Citrate Regulates the Saccharomyces cerevisiae Mitochondrial GDP/GTP Carrier (Ggc1p) by Triggering Unidirectional Transport of GTP” (Journal of Fungi, 2022):
Where a chain is given by its changes, count along the chain named. Names and notes keep the numbering of the source.

Assays:
[1] = biological target: T1, Ggc1p (yeast mitochondrial GDP/GTP carrier) (Saccharomyces cerevisiae, UniProt P38988); assay: [[…]-3H]GTP uptake into effector-loaded proteoliposomes; assay type: biochemical; details: activator of GTP uniport; 5 mM internal compound; 1 μM external [8-3H]GTP; pH 7.0, 25 °C
T1 construct: gene GGC1; E. coli BL21(DE3) inclusion bodies, sarkosyl-solubilized, reconstituted in liposomes; calculated 33,215 Da with initiator Met
T1 sequence (P38988 1-300): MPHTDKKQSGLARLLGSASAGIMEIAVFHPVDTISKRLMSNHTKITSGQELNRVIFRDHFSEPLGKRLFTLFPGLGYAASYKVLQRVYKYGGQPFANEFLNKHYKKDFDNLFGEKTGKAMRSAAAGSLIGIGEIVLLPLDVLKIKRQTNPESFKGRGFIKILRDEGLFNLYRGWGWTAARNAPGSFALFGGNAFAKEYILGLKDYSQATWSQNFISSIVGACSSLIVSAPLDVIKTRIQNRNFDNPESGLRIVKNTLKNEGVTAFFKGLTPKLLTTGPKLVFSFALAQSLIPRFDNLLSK

[2] = biological target: T1, Ggc1p (yeast mitochondrial GDP/GTP carrier); assay: radiolabelled GTP uptake into proteoliposomes, activation by internal citrate; assay type: biochemical; details: activator (trans-activation of GTP uniport), not transported; allosteric, site distinct from GTP site; 10 μM external [8-3H]GTP; pH 7.0, 25 °C
[3] = biological target: T2, Ggc1p (yeast mitochondrial GDP/GTP carrier) (Saccharomyces cerevisiae, UniProt P38988, K154A); assay: radiolabelled GTP uptake into citrate-loaded proteoliposomes, […] s; assay type: biochemical; details: activator; 5 mM internal citrate; 1 μM external [8-3H]GTP; pH 7.0, 25 °C
T2 construct: gene GGC1; E. coli BL21(DE3) inclusion bodies, sarkosyl-solubilized, reconstituted in liposomes; calculated 33,215 Da with initiator Met
T2 sequence (P38988 1-300 K154A): T1 sequence (P38988 1-300) with K154A

[4] = biological target: T3, Ggc1p (yeast mitochondrial GDP/GTP carrier) (Saccharomyces cerevisiae, UniProt P38988, R156A); assay: as above; assay type: biochemical; details: activator; 5 mM internal citrate; 1 μM external [8-3H]GTP; pH 7.0, 25 °C
T3 construct: gene GGC1; E. coli BL21(DE3) inclusion bodies, sarkosyl-solubilized, reconstituted in liposomes; calculated 33,215 Da with initiator Met
T3 sequence (P38988 1-300 R156A): T1 sequence (P38988 1-300) with R156A

[5] = biological target: T1, Ggc1p (yeast mitochondrial GDP/GTP carrier); assay: inhibition of [[…]-3H]GTP uptake into proteoliposomes; assay type: biochemical; details: citrate-induced GTP uptake (5 mM internal citrate); 1 μM [8-3H]GTP; pH 7.0, 25 °C
[6] = biological target: T1, Ggc1p (yeast mitochondrial GDP/GTP carrier); assay: as above; assay type: biochemical; details: GTP/GTP exchange (5 mM internal GTP) and citrate-induced uptake (5 mM internal citrate); 1 μM [8-3H]GTP; pH 7.0, 25 °C
purified protein = substrate: Nc1nc2c(ncn2[C@@H]2O[C@H](COP(=O)(O)OP(=O)(O)OP(=O)(O)O)[C@@H](O)[C@H]2O)c(=O)[nH]1; assay: purified protein; assay type: biochemical, Saccharomyces cerevisiae; details: citrate-induced GTP uniport, internal citrate 0.15-0.6 mM, external 0.25-1 μM [8-3H]GTP, pH 7.0, 25 °C, labelled compound

Molecule: O=C(O)/C=C(/CC(=O)O)C(=O)O [cis-aconitate]
- [8-3H]GTP uptake into effector-loaded proteoliposomes [1]: GTP uptake was also observed with proteoliposomes containing citrate, isocitrate, cis-aconitate

Molecule: O=C(O)CC(O)(CC(=O)O)C(=O)O [citrate]
- EC50 [2]: 510 µM
- % of wild-type uptake [3]: CIGU in K154A and R156A mutants were markedly decreased with respect to that of wild-type
- % of wild-type uptake [4]: CIGU in K154A and R156A mutants were markedly decreased with respect to that of wild-type

Molecule: CO[C@H](C/C=C\C=C\CC/C=C/C[C@H](C)/C=C/C(=C\C(=O)O)CC(=O)O)/C(C)=C\C=C(/C)C(=O)O [bongkrekic acid]
- % inhibition at 0.1 mM [5]: CIGU was partially inhibited by p-hydroxymercuribenzoate, carboxyatractyloside and bongkrekate

Molecule: O=C(O)C[C@H](C(=O)O)[C@@H](O)C(=O)O [isocitrate]
- [8-3H]GTP uptake into effector-loaded proteoliposomes [1]: GTP uptake was also observed with proteoliposomes containing citrate, isocitrate, cis-aconitate

Molecule: Cc1cc(C2(c3cc(C)c(O)c(Br)c3)OS(=O)(=O)c3ccccc32)cc(Br)c1O [bromocresol purple]
- % inhibition at 0.3 mM [6]: tannic acid and bromocresol purple (inhibitors of the mitochondrial glutamate carriers)

B1: Ggc1p (yeast mitochondrial GDP/GTP carrier) (Saccharomyces cerevisiae S288C) (protein)
chain: T1 sequence (P38988 1-300)
notes: E. coli BL21(DE3) inclusion bodies, sarkosyl-solubilized, reconstituted in liposomes; calculated 33,215 Da with initiator Met
- Km (purified protein): 0.72 µM
